Usually Ki stands for the dissociation constant of the complex between target and ligand, obtained from inhibition or displacement.

We go through 13 compounds from patent US7329681B2, “Inhibitors of IMPDH enzyme” (Vertex Pharmaceuticals Incorporated, priority 1996, dated 2008).

One assay concerns the target IMPDH human type II (Homo sapiens, UniProt P12268). As to the kind of experiment: IMPDH activity inhibition assay (spectrophotometric, NADH formation at 340 nm).
Details: not given
The class given is biochemical. Here is the method: We have measured the inhibition constants of each compound against IMPDH using an adaptation of the method first reported by […]. Moyed, and […]. Biol. Chem., 226, p. 339 (1957)]. We measured the inhibition constants of the compounds listed in Table III utilizing the following protocol: IMP dehydrogenase activity was assayed following an adaptation of the method first reported by […]. Moyed, H. S. and […]. Biol. Chem. 226, 339]. Enzyme activity was measured spectrophotometrically, by monitoring the increase in absorbance at 340 nm due to the formation of NADH (ε340 is 6220 M^-1 cm^-1). The reaction mixture contained 0.1 M Tris pH 8.0, 0.1 M KCl, 3 mM EDTA, 2 mM DTT, […] and enzyme (IMPDH human type II) at a concentration of 15 to 50 nM. This solution is incubated at 37° C. for 10 minutes. The reaction is started by adding NAD to a final concentration of 0.1 M and the initial rate is measured by following the linear increase in absorbance at 340 nm for 10 minutes. For reading in a standard spectrophotometer (path length 1 cm) the final volume in the cuvette is 1.0 ml. The assay has also been adapted to a 96 well microtiter plate format; in this case the concentrations of all the reagents remain the same and the final volume is decreased to 200 μl. For the analysis of inhibitors, the compound in question is dissolved in DMSO to a final concentration of 20 mM and added to the initial assay mixture for preincubation with the enzyme at a final volume of 2-5% (v/v). The reaction is started by the addition of NAD, and the initial rates measured as above. […] The designation “ND” is used where a given compound was not tested.
As to `COC(=O)NCc1cccc(NC(=O)Nc2ccc(-c3cnco3)c(OC)c2)c1` [Compound 118], the Ki was 1000 to 10000 nM.

The same assay, now with this note: IMPDH human type II, 15 to 50 nM enzyme, 37° C., tight-binding fit (Henderson); read-out: Ki.
On to `COc1cc(NC(=O)Nc2cccc(CNC(=O)OCCCCCO)c2)ccc1-c1cnco1` [Compound 141], for which the Ki lay within 0.01 to 50 nM.

As to `COc1cc(NC(=O)Nc2cccc(CNC(=O)OC(CO)CO)c2)ccc1-c1cnco1` [Compound 151], the Ki fell in the range of 51 to 1000 nM.

Regarding `Cc1ncc(-c2cccc(NC(=O)Nc3ccc(-c4cnco4)cc3)c2)cn1` [Compound 66], the Ki was in the range of 1000 to 10000 nM. Take `O=C(Nc1ccncc1)Nc1ccc(-c2cnco2)cc1` [Compound 30]: the Ki was in the range of 1000 to 10000 nM. With `CCc1cccc(NC(=O)Nc2ccc(OC)c(OC)c2)c1` [Compound 37], the Ki is 1000 to 10000 nM. The same measure, in the same setting: the result for `COc1ccc(NC(=O)Nc2cccc(C)c2)cc1OC` [Compound 28] reads 1000 to 10000 nM; that for `O=C(Nc1ccc(-c2cnco2)cc1)Nc1ccc(Cl)c(C(F)(F)F)c1` [Compound 9], 1000 to 10000 nM; that for `CC1(c2cccc(NC(=O)Nc3ccc(-c4cnco4)cc3)c2)OCCO1` [Compound 50], over 10000 nM. For `Cc1cccc(NC(=O)Nc2ccc(C#N)c(Cl)c2)c1` [Compound 70], the Ki was in the range of 1000 to 10000 nM. Turning to `COc1cc(NC(=O)Nc2cccc(CNC(=O)OC3CCSC3)c2)ccc1-c1cnco1` (stereo not shown) [Compound 160], the Ki was in the range of 0.01 to 50 nM. Consider `O=C(Nc1ccc(-c2cnco2)cc1)Nc1cccc(-c2ccoc2)c1` [Compound 53], for which the Ki is 1000 to 10000 nM.

Turning to `COc1cc(NC(=O)Nc2cccc(CNC(=O)OCc3ccco3)c2)ccc1-c1cnco1` [Compound 128], the Ki lay in the range of 0.01 to 50 nM.
